From ChEMBL document CHEMBL1250451, “Mechanistic insights into a Ca2+-dependent family of alpha-mannosidases in a human gut symbiont” (Nat Chem Biol, 2010)
Active and inactive are the calls of the source. The rule behind the calls is not given here.

What was measured:
Assay type in all cases: protein assay
[1] = biological target: T1, Alpha-1,2-mannosidase (BT_2948) (Bacteroides thetaiotaomicron) (UniProt Q8A3K6); test: Activity of Bacteroides thetaiotaomicron GH92 alpha-mannosidase GH92 alpha-mannosidase 2948 assessed as mannose release at 1 mM after 16 hrs by HPLC relative to untreated control after 16 hrs by HPLC
T1 sequence (whole entry): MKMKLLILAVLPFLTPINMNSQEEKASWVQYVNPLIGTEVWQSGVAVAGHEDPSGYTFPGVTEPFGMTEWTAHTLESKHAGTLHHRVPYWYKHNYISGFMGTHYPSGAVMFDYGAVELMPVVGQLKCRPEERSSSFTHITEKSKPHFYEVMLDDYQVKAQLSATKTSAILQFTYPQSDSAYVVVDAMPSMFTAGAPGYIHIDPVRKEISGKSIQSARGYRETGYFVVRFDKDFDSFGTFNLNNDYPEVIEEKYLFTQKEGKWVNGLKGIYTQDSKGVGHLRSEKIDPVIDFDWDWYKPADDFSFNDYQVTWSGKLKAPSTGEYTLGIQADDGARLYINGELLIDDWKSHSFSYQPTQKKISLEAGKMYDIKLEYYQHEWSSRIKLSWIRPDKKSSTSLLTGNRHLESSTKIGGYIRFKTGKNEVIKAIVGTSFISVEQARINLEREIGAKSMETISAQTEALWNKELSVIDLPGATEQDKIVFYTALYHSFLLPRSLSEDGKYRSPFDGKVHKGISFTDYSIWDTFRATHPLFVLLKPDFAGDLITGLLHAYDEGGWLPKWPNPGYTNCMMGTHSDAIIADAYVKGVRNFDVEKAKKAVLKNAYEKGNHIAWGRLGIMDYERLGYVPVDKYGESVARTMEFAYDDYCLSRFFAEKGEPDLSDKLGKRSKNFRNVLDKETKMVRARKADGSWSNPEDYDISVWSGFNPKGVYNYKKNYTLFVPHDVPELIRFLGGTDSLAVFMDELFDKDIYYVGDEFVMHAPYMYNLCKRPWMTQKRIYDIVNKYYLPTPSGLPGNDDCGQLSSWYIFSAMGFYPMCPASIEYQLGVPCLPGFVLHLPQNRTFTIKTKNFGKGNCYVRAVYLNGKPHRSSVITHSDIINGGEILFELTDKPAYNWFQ

[2] = biological target: T2, Alpha-1,2-mannosidase (BT_3530) (Bacteroides thetaiotaomicron) (UniProt Q8A1X8); test: Activity of Bacteroides thetaiotaomicron GH92 alpha-mannosidase GH92 alpha-mannosidase 3530 assessed as mannose release at 1 mM after 16 hrs by HPLC relative to untreated control after 16 hrs by HPLC
T2 sequence (whole entry): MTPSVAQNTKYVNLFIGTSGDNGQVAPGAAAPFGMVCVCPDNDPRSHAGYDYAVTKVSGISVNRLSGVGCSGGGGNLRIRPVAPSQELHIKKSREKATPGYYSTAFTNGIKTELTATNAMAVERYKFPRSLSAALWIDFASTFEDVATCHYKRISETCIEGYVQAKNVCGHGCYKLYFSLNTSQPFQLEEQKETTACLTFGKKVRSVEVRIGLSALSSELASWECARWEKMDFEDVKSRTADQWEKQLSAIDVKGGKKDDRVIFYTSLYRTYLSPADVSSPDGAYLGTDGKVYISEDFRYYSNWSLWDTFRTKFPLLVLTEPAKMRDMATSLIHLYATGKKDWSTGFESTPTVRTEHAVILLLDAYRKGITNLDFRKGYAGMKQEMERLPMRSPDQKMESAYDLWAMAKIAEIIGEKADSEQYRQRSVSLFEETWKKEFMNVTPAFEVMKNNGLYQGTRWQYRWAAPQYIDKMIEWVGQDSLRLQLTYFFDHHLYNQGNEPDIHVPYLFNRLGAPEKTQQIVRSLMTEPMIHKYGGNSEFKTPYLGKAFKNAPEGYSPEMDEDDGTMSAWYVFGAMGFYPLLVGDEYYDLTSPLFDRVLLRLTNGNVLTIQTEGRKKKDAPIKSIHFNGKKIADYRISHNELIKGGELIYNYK

[3] = biological target: T3, Alpha-1,2-mannosidase (BT_3991) (Bacteroides thetaiotaomicron) (UniProt Q8A0N0); test: Activity of Bacteroides thetaiotaomicron GH92 alpha-mannosidase GH92 alpha-mannosidase 3991 assessed as mannose release at 1 mM after 16 hrs by HPLC relative to untreated control after 16 hrs by HPLC
T3 sequence (whole entry): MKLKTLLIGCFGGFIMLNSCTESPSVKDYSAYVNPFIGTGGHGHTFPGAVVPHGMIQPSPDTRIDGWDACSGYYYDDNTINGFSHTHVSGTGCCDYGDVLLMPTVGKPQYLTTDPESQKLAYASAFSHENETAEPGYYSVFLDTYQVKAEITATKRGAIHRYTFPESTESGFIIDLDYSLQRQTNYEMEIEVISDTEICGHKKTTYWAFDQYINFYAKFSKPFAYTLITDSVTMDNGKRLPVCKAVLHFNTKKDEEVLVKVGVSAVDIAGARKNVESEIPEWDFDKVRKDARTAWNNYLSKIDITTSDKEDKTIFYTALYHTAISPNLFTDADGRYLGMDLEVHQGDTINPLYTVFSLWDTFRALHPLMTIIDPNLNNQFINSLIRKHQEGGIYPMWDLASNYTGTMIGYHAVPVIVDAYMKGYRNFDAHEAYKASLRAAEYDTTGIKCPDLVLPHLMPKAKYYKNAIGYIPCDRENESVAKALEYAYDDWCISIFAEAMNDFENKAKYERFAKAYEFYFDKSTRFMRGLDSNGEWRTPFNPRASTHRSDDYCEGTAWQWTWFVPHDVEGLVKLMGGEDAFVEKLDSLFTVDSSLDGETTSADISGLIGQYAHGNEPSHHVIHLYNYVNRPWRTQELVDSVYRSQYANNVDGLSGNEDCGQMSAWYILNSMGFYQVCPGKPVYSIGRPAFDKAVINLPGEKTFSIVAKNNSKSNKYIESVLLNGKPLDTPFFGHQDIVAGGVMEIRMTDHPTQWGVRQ

Activity [1]	Activity [2]	Activity [3]	SMILES
inactive	inactive	1.51%	OC[C@H]1O[C@H](OC[C@H]2O[C@H](O)[C@@H](O)[C@@H](O)[C@@H]2O)[C@@H](O)[C@@H](O)[C@@H]1O
inactive	inactive	0.8%	OC[C@H]1O[C@H](O[C@H]2[C@@H](O)[C@H](O)[C@@H](CO)O[C@@H]2O)[C@@H](O)[C@@H](O)[C@@H]1O
inactive	58%	–	OC[C@H]1O[C@H](O[C@@H]2[C@H](O)[C@@H](O)O[C@H](CO)[C@H]2O)[C@@H](O)[C@@H](O)[C@@H]1O
inactive	100%	inactive	OC[C@H]1O[C@H](O[C@H]2[C@H](O)[C@H](O)[C@@H](O)O[C@@H]2CO)[C@@H](O)[C@@H](O)[C@@H]1O
